According to US10093694B2, “Compounds for treating eye disorders or diseases” (Guangzhou KangRui Biological Pharmaceutical Technology Co, …, priority 2016, dated 2018):

Assays:
mouse lenses (cataract) = test: Cataract studies: dissected mouse cataract lenses incubated with compound, scored for clarity; details: incubated with compound at the indicated concentrations for 4 hours at room temperature, PBS negative control showed no lens opacity change
Description: (§1) FIGS. 14A and 14B show cataract lenses that have been treated with Compound 1. FIG. 14A show mouse lenses (white) that were dissected from the eye and placed into phosphate buffered saline solution (PBS) overnight at 4° C. Cataract was visible in all lenses. The cataract lenses were incubated with Compound 1 at the indicated concentration for 4 hours at room temperature and then scored for clarity. […] The PBS solution served as negative control and there were no lens opacity change.
as §1, with “15A” for “14A”, “15B” for “14B”, “2.” for “1.”, “2” for “1”

mouse eyes (cataract) = test: Cataract studies: mouse eyes treated with eye drop solution; assay type: in vivo; details: eye drop solution 100 μM, three times a day, 50 μl each time, 6 weeks, versus negative control
Description: FIGS. 16A and 16B show the result of mouse eyes treated with an eye drop solution containing Compound 1 at 100 μM concentration three times a day for 50 μl each time for 6 weeks.

Compound | lens clarity / cataract after treatment (mouse lenses (cataract)) | clarity / cataract of treated eye (mouse eyes (cataract))
C[C@H](CCC(Br)C(C)(C)O)[C@H]1CC[C@@]2(C)C3=C(CC[C@]12C)[C@@]1(C)CC[C@H](O)C(C)(C)[C@@H]1CC3 (stereo partly drawn) [Compound 1, (3S,5R,10S,13R,14R,17R)-17-((2R)-5-bromo-6-hydroxy-6-methylheptan-2-yl)-4,4,10,13,14-pentamethyl-2,3,4,5,6,7,10,11,12,13,14,15,16,17-tetradecahydro-1H-cyclopenta[a]phenanthren-3-ol] | Increased lens clarity and reduced cataract | increased clarity and reduced cataract
C[C@H](CCCC(C)(C)O)[C@H]1CC[C@@]2(C)C3=C(CC[C@]12C)[C@@]1(C)CC[C@H](O)C(C)(C)[C@@H]1CC3 [Compound 2, (3S,5R,10S,13R,14R,17R)-17-((R)-6-hydroxy-6-methylheptan-2-yl)-4,4,10,13,14-pentamethyl-2,3,4,5,6,7,10,11,12,13,14,15,16,17-tetradecahydro-1H-cyclopenta[a]phenanthren-3-ol] | Increased lens clarity and reduced cataract | 
